Test results taken from article PMC7496690, “Structure‐Activity Relationship and Crystallographic Studies on 4‐Hydroxypyrimidine HIF Prolyl Hydroxylase Domain Inhibitors” (Chemmedchem, 2019).
Like-named read-outs stand apart in the source and are kept apart here.

How the values were obtained:
OGFOD1 = target: T1, OGFOD1 (Homo sapiens, UniProt Q8N543); assay: MALDI-TOF MS OGFOD1 hydroxylation assay; format: biochemical; settings: at 10 μM inhibitor
T1 construct: made in house
T1 sequence (Q8N543 1-542): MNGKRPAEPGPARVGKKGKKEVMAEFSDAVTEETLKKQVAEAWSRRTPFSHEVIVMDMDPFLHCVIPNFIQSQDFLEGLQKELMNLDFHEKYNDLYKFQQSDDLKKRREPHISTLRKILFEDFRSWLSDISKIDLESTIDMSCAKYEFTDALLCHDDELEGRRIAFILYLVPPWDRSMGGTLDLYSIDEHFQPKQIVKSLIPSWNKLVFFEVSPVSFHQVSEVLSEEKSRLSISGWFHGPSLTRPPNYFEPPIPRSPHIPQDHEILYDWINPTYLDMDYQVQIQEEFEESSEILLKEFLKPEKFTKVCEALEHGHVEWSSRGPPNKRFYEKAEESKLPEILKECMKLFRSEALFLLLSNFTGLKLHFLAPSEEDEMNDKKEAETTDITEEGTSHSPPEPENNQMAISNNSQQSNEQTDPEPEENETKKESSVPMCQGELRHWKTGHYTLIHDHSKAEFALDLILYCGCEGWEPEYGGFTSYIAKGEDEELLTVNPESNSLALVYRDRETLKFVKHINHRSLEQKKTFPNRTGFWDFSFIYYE
Protocol: Supplementary Information […]
acid. […] Assay plates were transferred to a
MALDI-TOF MS OGFOD1 Hydroxylation Assays […]
metal affinity chromatography.
The optimized hydroxylation […]
(§1) presence of Fe(II) (50 μM), 2OG (25 μM), L-ascorbic acid (100 μM) and RPS2351-70 (25 μM) in HEPES (50 mM, pH 7.5) at 37 °C for 15 min. Reagent solutions were made as previously reported.[23] Reactions were quenched with formic acid (1 % v/v). Samples were prepared by mixing reaction mixture (1 μL) with α-cyano-4-hydrocinnamic acid (CHCA) solution (water:acetonitrile 1:1) (1 μL). Dose-response was assessed in 8-point triplicates.
(§2) Data were analysed using GraphPad Prism 5.04.

PHD2_181‐426 [1] = target: T2, PHD2_181‐426 (Homo sapiens, UniProt Q9GZT9); assay: biochemical
T2 sequence (Q9GZT9 181-426): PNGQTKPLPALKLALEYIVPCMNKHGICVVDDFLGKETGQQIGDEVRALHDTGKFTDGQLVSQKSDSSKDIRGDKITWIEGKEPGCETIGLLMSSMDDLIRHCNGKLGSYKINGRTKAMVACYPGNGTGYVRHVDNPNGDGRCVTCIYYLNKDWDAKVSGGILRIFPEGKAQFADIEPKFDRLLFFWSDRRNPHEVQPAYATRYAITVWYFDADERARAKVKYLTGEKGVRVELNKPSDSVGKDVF

FIH = FIH (Homo sapiens, UniProt Q9NWT6); assay: biochemical
FIH, sequence (Q9NWT6 whole entry): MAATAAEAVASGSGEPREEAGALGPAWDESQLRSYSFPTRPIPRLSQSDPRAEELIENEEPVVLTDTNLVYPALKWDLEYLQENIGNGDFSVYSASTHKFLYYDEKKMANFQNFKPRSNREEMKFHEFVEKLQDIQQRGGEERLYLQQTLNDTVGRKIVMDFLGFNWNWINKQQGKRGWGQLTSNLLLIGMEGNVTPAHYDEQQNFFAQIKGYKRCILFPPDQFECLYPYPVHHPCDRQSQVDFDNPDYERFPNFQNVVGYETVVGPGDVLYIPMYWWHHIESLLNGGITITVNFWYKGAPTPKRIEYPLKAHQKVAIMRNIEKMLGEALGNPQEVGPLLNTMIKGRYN
Protocol: chromatogram data were extracted for the +2 charge state and peak area data integrated using
RapidFire Integrator software (Agilent). The % conversion of the CODD peptide substrate to the +16 hydroxylated peptide was calculated using the equation:
determined from non-linear regression plots using GraphPad prism 6.0.
was normalized to no enzyme control.2
RapidFire-MS FIH hydroxylation assays
in the assay buffer (50 mM Tris-HCl pH 7.8, 50 mM NaCl) was pre - incubated for 15 minutes in
the presence of the inhibitors and the enzyme reaction initiated by addition of 20 μL substrate (200
μM L-ascorbic acid, 20 μM Fe(II) sulfate, 10 μM synthetic ankyrin peptide and 20 μM 2OG).[16]
After 15 minutes the reaction was quenched by addition of 4 μL 10% formic acid and the reaction
transferred to a RapidFire RF360 high throughput sampling robot. Samples were aspirated under
vacuum onto a C4 SPE cartridge. After an aqueous washing step (0.1% (v/v) aqueous formic acid),
to remove non-volatile buffer components from the C4 SPE cartridge , peptide was eluted in an
Ion chromatogram data was extracted for the non -hydroxylated
peptide substrate and the hydroxylated peptide product; the peak area data for extracted ion
chromatograms were integrated using RapidFire Integrator software. % conversion of substrate to
product was calculated in Microsoft excel and IC50 curves generated using Graph pad Prism.

KDM4A [2] = target: T3, KDM4A (Homo sapiens, UniProt O75164); assay: biochemical
T3 sequence (O75164 1-359 limits assumed): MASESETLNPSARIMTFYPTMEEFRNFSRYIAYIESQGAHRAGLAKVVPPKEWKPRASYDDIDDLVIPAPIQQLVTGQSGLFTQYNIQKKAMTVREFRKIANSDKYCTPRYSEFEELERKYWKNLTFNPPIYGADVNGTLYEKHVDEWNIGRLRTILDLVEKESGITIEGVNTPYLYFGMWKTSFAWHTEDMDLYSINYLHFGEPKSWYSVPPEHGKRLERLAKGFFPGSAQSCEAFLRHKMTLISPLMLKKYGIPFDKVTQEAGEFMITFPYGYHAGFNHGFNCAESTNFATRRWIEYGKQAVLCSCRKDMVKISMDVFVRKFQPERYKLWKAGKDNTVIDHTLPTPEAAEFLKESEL
Protocol: RapidFire-MS KDM4A hydroxylation assays
(§3) (RF-MS). […] The KDM4A RF-MS assay measures
(§4) depletion of a histone H3-K9 (Me3) peptide substrate and appearance of the dimethyl peptide
(§5) oxoglutarate (2OG, code K3752) were from Sigma Aldrich (Poole, Dorset). The H3K9Me3 peptide
(§6) each day to a concentration of 50 mM in deionized water, ferrous ammonium sulphate was prepared
(§7) freshly each day by dissolving to 400 mM in 10 mM HCl and then dilution to 1 mM in deionized
(§8) water, 2OG was prepared freshly each day by dissolving in 10 mM in deionized water. The
(§9) KDM4A RF-MS assay was performed in 384-well plate format in assay buffer (50 mM MES pH
(§10) 7.0). All reagent dispenses were performed using a multidrop reagent dispenser (Thermo). Dilutions
(§11) of compounds were prepared using an ECHO 550 acoustic dispenser (Labcyte) and dry dispensed
(§12) (250 nL) in duplicate into 384-well polypropylene plates (Greiner Bio-One); DMSO (250 nL) was
(§13) dispensed into columns 12 and 2, 4-pyridinedicarboxylic acid (a known JmjC KDM inhibitor)[21]
(§14) (250 nL of 10 mM) was dispensed into column 24 as a no enzyme control. KDM4A (300 nM) was
(§15) minutes. Reaction was initiated by dispensing of 25 µL of assay buffer containing substrate and co-
(§16) factors (200 µM LAA, 20 µM FAS, 20 µM 2OG and 20 µM H3K9Me3 peptide); reactions were
(§17) allowed to progress for 50 minutes, then stopped by addition of 5 µL of 10% (v/v) aqueous formic
(§18) acid. The final assay concentration of DMSO was 0.5% (v/v). Assay plates were transferred to a
(§19) RapidFire RF365 high throughput sampling robot and samples aspirated under vacuum onto a C4
(§20) SPE cartridge. After an aqueous wash step (0.1% v/v formic acid in water) to remove non-volatile
(§21) buffer components from the C4 SPE, peptide was eluted from the C4 SPE in an organic wash step
(§22) cycle of sample aspiration, loading, wash and elution takes approximately 12 seconds. Peptide
(§23) charge states were monitored in the positive ESI mode with a drying gas temperature of 280°C, a
(§24) drying gas flow rate of 13 L/minute, nebulizer gas pressure of 40 PSI, sheath gas temperature of
(§25) 350°C, sheath gas flow rate of 12 L/min and a nozzle voltage of 1000V. Ion chromatogram data
(§26) was extracted for the substrate and the product methyl marks and peak area data for extracted ion
(§27) chromatograms were integrated using RapidFire Integrator software (Agilent). % conversion to the
(§28) dimethyl peptide product was calculated using the equation:
(§29) % conversion = 100 x dimethyl / (dimethyl + trimethyl peptide)
(§30) IC50 data were determined from non -linear regression plots using GraphPad prism 6.0

PHD2_181‐426 [3] = target: T2, PHD2_181‐426; assay: biochemical; remark: listed apart in the source
[4] = target: T4, viral collagen prolyl hydroxylase (vCPH) (Paramecium bursaria Chlorella virus 1, UniProt Q84406); assay: MALDI-TOF MS vCPH hydroxylation assay; format: biochemical
T4 construct: made in house
T4 sequence (Q84406 entry or part of it): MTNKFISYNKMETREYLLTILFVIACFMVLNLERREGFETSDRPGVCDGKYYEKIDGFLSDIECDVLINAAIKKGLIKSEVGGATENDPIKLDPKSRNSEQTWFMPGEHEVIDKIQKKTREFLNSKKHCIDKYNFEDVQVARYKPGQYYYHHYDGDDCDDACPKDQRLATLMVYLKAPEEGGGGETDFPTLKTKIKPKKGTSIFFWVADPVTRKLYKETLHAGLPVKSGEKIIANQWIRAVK
Protocol: as §1, with “Supplementary Information presence” for “presence”
as §2

Hep‐3B human cell line = assay: Cellular HIF-1α stabilization by immunoblotting; format: cell-based; settings: Hep3B, 3 hours, immunoblot
Protocol: Other factors including cell penetration and metabolism likely impact on cellular activity.
Supplementary Information
Figure S7: Immunoblots of Hep3B cells treated with 100 μM (A) and 20 μM (B) PHD inhibitors for 3 hours. The blots show protein levels of HIF1-α and β-actin at the 3rd hour. Protocols for cell culture and immunoblotting have been previously reported.[2] […]

KDM4A [5] = target: T3, KDM4A
Protocol: RapidFire-MS KDM4A hydroxylation assays
as §3, §4, §5, §6, §7, §8, §9, §10, §11, §12, §13, §14, §15, §16, §17, §18, §19, §20, §21, §22, §23, §24, §25, §26, §27, §28, §29, §30

SMILES | OGFOD1 activity relative to control (OGFOD1) | IC50 (FIH) | IC50 (KDM4A [2]) | cellular HIF‐1α stabilization (Hep‐3B human cell line; 100 μM) | IC50 [4] | also measured
Cc1nc(C(=O)NCC(=O)O)c(O)c2ccc(Oc3ccccc3)cc12 [compound 1, Roxadustat, reference compound] | 100% |  |  |  |  | 
CCOC(=O)c1cnc(-n2cccn2)nc1O [compound 6, Ethyl 4-hydroxy-2-(1H-pyrazol-1-yl) pyrimidine-5-carboxylate] |  | > 25 µM | > 25 µM |  |  | IC50 (PHD2_181‐426 [1]): > 25 µM; IC50 (PHD2_181‐426 [3]): > 25 µM; vCPH inhibition (in words) [4]: inactive
O=C(NCc1ccc(Oc2ccccc2)cc1)c1cnc(-n2cccn2)nc1O [compound 8, 4-Hydroxy-N-(4-phenoxybenzyl)-2-(1H-pyrazol-1-yl)pyrimidine-5-carboxamide] | 83±13% |  | > 25 µM | strongest activity | 2 ± 0.1 µM | 
O=C(NCc1ccc(-c2ccccc2)cc1)c1cnc(-n2cccn2)nc1O [compound 9, N-([1,1’-Biphenyl]-4-ylmethyl)-4-hydroxy-2-(1H-pyrazol-1-yl)pyrimidine-5-carboxamide] |  | > 25 µM | 20 µM |  |  | 
O=C(NCc1ccccc1)c1cnc(-n2cccn2)nc1O [compound 10, N-Benzyl-4-Hydroxy-2-(1H-pyrazol-1-yl)pyrimidine-5-carboxamide] |  |  | > 25 µM |  |  | 
O=C(NCc1ccccn1)c1cnc(-n2cccn2)nc1O [compound 11, 4-Hydroxy-2-(1H-pyrazol-1-yl)-N-(pyridin-2-ylmethyl)pyrimidine-5-carboxamide] |  |  | 17 µM |  |  | 
O=C(NCC1CCCCC1)c1cnc(-n2cccn2)nc1O [compound 12, N-(Cyclohexylmethyl)-4-hydroxy-2-(1H-pyrazol-1-yl)pyrimidine-5-carboxamide] |  | > 25 µM | > 25 µM |  |  | IC50 (PHD2_181‐426 [1]): > 25 µM; IC50 (PHD2_181‐426 [3]): > 25 µM
O=C(NCc1cccc(C(F)(F)F)c1)c1cnc(-n2cccn2)nc1O [compound 13, 4-Hydroxy-2-(1H-pyrazol-1-yl)-N-(3-(trifluoromethyl)benzyl)pyrimidine-5-carboxamide] | 75±1% | > 25 µM | > 25 µM |  |  | 
O=C(NCc1ccc2c(c1)OCO2)c1cnc(-n2cccn2)nc1O [compound 14, N-(Benzo[d][1,3]dioxol-5-ylmethyl)-4-hydroxy-2-(1H-pyrazol-1-yl)pyrimidine-5-carboxamide] |  |  | 23 µM |  |  | IC50 (PHD2_181‐426 [1]): 0.274 ± 0.034 µM; IC50 (PHD2_181‐426 [3]): 0.261 ± 0.037 µM
O=C(Nc1ccc(-c2ccccc2)cc1)c1cnc(-n2cccn2)nc1O [compound 15, N-([1,1’-Biphenyl]-4-yl)-4-hydroxy-2-(1H-pyrazol-1-yl)pyrimidine-5-carboxamide] |  |  | > 25 µM | strongest activity | 28.2 ± 1 µM | cellular HIF‐1α stabilization (Hep‐3B human cell line; 20 μM): manifested HIF‐1α stabilization
O=C(N[C@@H](CO)c1ccccc1)c1cnc(-n2cccn2)nc1O [compound 16] | 41±5% |  | > 25 µM | inactive | 1.1 ± 0.1 µM | 
O=C(N[C@H](CO)c1ccccc1)c1cnc(-n2cccn2)nc1O [compound 17] | 70±3% |  | 21 µM | modest HIF‐1α stabilization |  | 
Cc1cccnc1CN1CCC2(CC1)C(=O)N(c1ccc(-c3ccccc3)cc1)C(=O)N2c1ncccn1 [compound 18, reference compound] |  | > 25 µM |  | strongest activity | > 100 µM | cellular HIF‐1α stabilization (Hep‐3B human cell line; 20 μM): manifested HIF‐1α stabilization; IC50 (KDM4A [5]): 4.65 µM
